Measured values from ChEMBL document CHEMBL2375285, “Novel (coumarin-3-yl)carbamates as selective MAO-B inhibitors: synthesis, in vitro and in vivo assays, theoretical evaluation of ADME properties and docking study” (Eur J Med Chem, 2013).
The source made the active and inactive calls. The rule behind the calls is not given here.

Assays:
[1] = system: Mus musculus; experiment: Potentiation of L-dopa/carbidopa activity in reserpine-treated CD1 mouse assessed as increase in straightening at 100 mg/kg, ip administered 22 hrs post reserpine challenge followed by L-dopa/carbidopa adminstration at 30 mins measured after 1 hr relative to control; format: functional, organism-based; set-up: dose 100 mg/kg
[2] = system: Mus musculus; experiment: Potentiation of L-dopa/carbidopa activity in reserpine-treated CD1 mouse assessed as increase in movement at 100 mg/kg, ip administered 22 hrs post reserpine challenge followed by L-dopa/carbidopa adminstration at 30 mins measured after 1 hr relative to control; format: functional, organism-based; set-up: dose 100 mg/kg
[3] = system: Mus musculus; experiment: Potentiation of L-dopa/carbidopa activity in reserpine-treated CD1 mouse assessed as increase in velocity at 100 mg/kg, ip administered 22 hrs post reserpine challenge followed by L-dopa/carbidopa adminstration at 30 mins measured after 1 hr relative to control; format: functional, organism-based; set-up: dose 100 mg/kg
[4] = system: Mus musculus; experiment: Potentiation of L-dopa/carbidopa activity in reserpine-treated CD1 mouse assessed as increase in motor activity at 100 mg/kg, ip administered 22 hrs post reserpine challenge followed by L-dopa/carbidopa adminstration at 30 mins measured after 1 hr relative to control; format: functional, organism-based; set-up: dose 100 mg/kg
[5] = system: Mus musculus; experiment: Potentiation of L-dopa/carbidopa activity in reserpine-treated CD1 mouse assessed as increase in movement at 10 mg/kg, ip administered 22 hrs post reserpine challenge followed by L-dopa/carbidopa adminstration at 30 mins measured after 1 hr relative to control; format: functional, organism-based; set-up: dose 10 mg/kg
[6] = system: Mus musculus; experiment: Potentiation of L-dopa/carbidopa activity in reserpine-treated CD1 mouse assessed as increase in motor activity at 10 mg/kg, ip administered 22 hrs post reserpine challenge followed by L-dopa/carbidopa adminstration at 30 mins measured after 1 hr relative to control; format: functional, organism-based; set-up: dose 10 mg/kg
[7] = system: Mus musculus; experiment: Neurotoxicity in CD1 mouse assessed as decrease in motor activity at 10 mg/kg, ip measured for 1 hr relative to control; format: toxicity, organism-based; set-up: dose 10 mg/kg, route intraperitoneal; conditions: in vivo
[8] = system: Mus musculus; experiment: Neurotoxicity in CD1 mouse assessed as decrease in velocity at 10 mg/kg, ip measured for 1 hr relative to control; format: toxicity, organism-based; set-up: dose 10 mg/kg, route intraperitoneal; conditions: in vivo
[9] = system: Mus musculus; experiment: Neurotoxicity in CD1 mouse assessed as decrease in movement at 10 mg/kg, ip measured for 1 hr relative to control; format: toxicity, organism-based; set-up: dose 10 mg/kg, route intraperitoneal; conditions: in vivo
[10] = system: Mus musculus; experiment: Neurotoxicity in CD1 mouse assessed as decrease in straightening at 10 mg/kg, ip measured for 1 hr relative to control; format: toxicity, organism-based; set-up: dose 10 mg/kg, route intraperitoneal; conditions: in vivo
[11] = system: Mus musculus; experiment: Toxicity in reserpine-treated CD1 mouse assessed as mortality at 100 mg/kg, ip measured for 24 to 48 hrs; format: organism-based; set-up: dose 100 mg/kg, route intraperitoneal; conditions: in vivo
[12] = system: Mus musculus; experiment: Potentiation of L-dopa/carbidopa activity in reserpine-treated CD1 mouse assessed as increase in straightening at 10 mg/kg, ip administered 22 hrs post reserpine challenge followed by L-dopa/carbidopa adminstration at 30 mins measured after 1 hr relative to control; format: functional, organism-based; set-up: dose 10 mg/kg
[13] = system: Mus musculus; experiment: Potentiation of L-dopa/carbidopa activity in reserpine-treated CD1 mouse assessed as increase in velocity at 10 mg/kg, ip administered 22 hrs post reserpine challenge followed by L-dopa/carbidopa adminstration at 30 mins measured after 1 hr relative to control; format: functional, organism-based; set-up: dose 10 mg/kg

Row | SMILES | Activity [1] | Activity [2] | Activity [3] | Activity [4] | Activity [5] | Activity [6] | Activity [7] | Activity [8] | Activity [9] | Activity [10] | Activity [11] | Activity [12] | Activity [13]
1 | O=C(Nc1cc2ccccc2oc1=O)OCc1ccccc1 | Active | Active | Active | Active | Active | Active | Non-toxic | Non-toxic | Non-toxic | Non-toxic | Non-toxic | – | –
2 | C#CCN(C)[C@H](C)Cc1ccccc1 [SELEGILINE] | – | – | – | – | Active | Active | Toxic | Toxic | Toxic | Toxic | – | Active | Active
